# According to patent US6194173A, “Binding proteins for phosphoinositides, GRP1 or general receptor 1 for phophoinositide” (priority 1999, dated 2001):
# Legend:
# [1] = molecular target: T1, proteins encoded by both brain and adipocyte cDNA clones (GRP) (Mus musculus, UniProt O08967); assay: Binding of 32P-labeled phosphoinositides to protein of isolated cDNA clones on nitrocellulose filters (library screen); conditions: library screening conditions
# T1 construct: lack four residues
# T1 sequence (O08967 5-399): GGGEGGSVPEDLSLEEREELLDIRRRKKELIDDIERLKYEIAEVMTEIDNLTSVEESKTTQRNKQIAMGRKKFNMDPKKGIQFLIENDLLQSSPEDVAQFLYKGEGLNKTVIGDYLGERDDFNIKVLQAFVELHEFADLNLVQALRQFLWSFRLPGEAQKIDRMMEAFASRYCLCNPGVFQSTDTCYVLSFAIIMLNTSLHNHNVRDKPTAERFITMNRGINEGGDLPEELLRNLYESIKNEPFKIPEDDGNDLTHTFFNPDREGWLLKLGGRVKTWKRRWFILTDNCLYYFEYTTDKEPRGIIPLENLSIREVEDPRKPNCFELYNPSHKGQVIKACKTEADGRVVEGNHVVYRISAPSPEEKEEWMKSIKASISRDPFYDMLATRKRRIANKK
# [2] = molecular target: T2, PH domain of GRP (Mus musculus, UniProt O08967); assay: Competition for [3H]dioctanoyl PtdIns(3,4,5)P3 binding to the PH domain of GRP; parameters: GST fused to the PH region of GRP (amino acids 239-399); made in house; host or cells: bacteria; conditions: competition for [^3 H]dioctanoyl PtdIns(3,4,5)P3
# T2 sequence (O08967 239-399): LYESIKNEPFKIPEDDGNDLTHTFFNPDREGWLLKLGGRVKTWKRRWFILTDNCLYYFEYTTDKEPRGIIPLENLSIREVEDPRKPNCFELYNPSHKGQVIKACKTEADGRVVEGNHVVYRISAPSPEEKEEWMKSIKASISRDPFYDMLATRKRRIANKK
# Description: Binding assays were performed as described in (Rameh, L. E. et al., J. Biol. Chem., In Press). Briefly, GST fused to the PH region of GRP (amino acids 239-399) was bound to glutathione immobilized on agarose beads (Sigma). Synthetic [^3 H]-labeled diotanoyl PtdIns(3,4,5)P3 was added, and after one hour the beads were separated from the supernatant by centrifugation. The amount of [^3 H]-PtdIns(3,4,5)P3 bound to the PH domain was calculated by subtracting the amount of free [^3 H] present in supernatants from GST-GRP from the amount of free [^3 H] in supernatants from control GST. The data was fitted to the equation [bound]=Bmax×[free]/(KD + [free]) by least squares curve fit. For the competition assays the beads containing the GST-fusion proteins were incubated with 2.5 μM[^3 H]-labeled dioctanoyl PtdIns(3,4,5)P3 bound was calculated based on the amount of [^3 H] bound to the beads in the absence of competitor. The total [^3 H] bound to the GST control was less then 0.5% of the total [^3 H] bound to GRP PH domain. The data was fitted to the equation % bound=100-n×L/Klapp +L) where n is the % specific binding, L is the concentration of unlabeled lipid added and Klapp is the apparent competitive dissociation constant. The rations of the apparent dissociation constants accurately reflect the ratios of the true dissociation constants under the present experimental conditions (Rameh, L. E. et al., J. Biol. Chem., In Press).
# The data depicted in FIG. 8 indicate that receptor signaling through PI3-kinases, which generates PtdIns(3,4,5)P3, may specifically regulate ARF proteins through GRP. In order to further test this, the relative binding affinities of PtdIns(3,4,5)P3 versus PtdIns (4,5)P2, which is constitutively present in cell membranes, for the PH domain of GRP were determined. A GST fusion protein of the PH domain of GRP was incubated with various concentrations of synthetic [^3 H]dioctanoyl PtdIns(3,4,5)P3 and binding was determined (FIG. 9A). These experiments show high affinity binding of this polyphosphoinositide,with a calculated Kd=0.5 μM.
substance,measurement,setting,value
"Phosphatidylinositol (3,4,5)-Trisphosphate [PtdIns(3,4,5)P3]",binding of labeled phosphoinositide to the cDNA clone protein,[1],bound
same,"KI(app), fold lower than for PtdIns(4,5)P2",[2],10-20 fold
